Reference: ChEMBL document CHEMBL3045199, “Synthesis of some (E)-6-[2-(furan-2-yl)ethenyl]-1,2,4-triazin-5-ones and their biological evaluation as antitumor agents” (2013)

What was measured:
Assay type in all cases: functional
[1] = test system: SN12C; test: Cytotoxicity against Homo sapiens (human) SN12C cells after 48 hr by SRB assay
[2] = test system: EKVX; test: Cytotoxicity against Homo sapiens (human) EKVX cells after 48 hr by SRB assay
[3] = test system: NCI-H226; test: Cytotoxicity against Homo sapiens (human) NCI-H226 cells after 48 hr by SRB assay; settings: NCI-H226, 48 h
[4] = test system: SF-295; test: Cytotoxicity against Homo sapiens (human) SF295 cells after 48 hr by SRB assay; settings: SF-295, 48 h
[5] = test system: NCI-H23; test: Cytotoxicity against Homo sapiens (human) NCI-H23 cells after 48 hr by SRB assay; settings: NCI-H23, 48 h
[6] = test system: 786-0; test: Cytotoxicity against Homo sapiens (human) 786-0 cells after 48 hr by SRB assay; settings: 786-0, 48 h
[7] = test system: K562; test: Cytotoxicity against Homo sapiens (human) K562 cells after 48 hr by SRB assay; settings: K562, 48 h
[8] = test system: A549; test: Cytotoxicity against Homo sapiens (human) A549 cells after 48 hr by SRB assay; settings: A549, 48 h
[9] = test system: UACC-257; test: Cytotoxicity against Homo sapiens (human) UACC257 cells after 48 hr by SRB assay; settings: UACC-257, 48 h
[10] = test system: PC-3; test: Cytotoxicity against Homo sapiens (human) PC3 cells after 48 hr by SRB assay; settings: PC-3, 48 h
[11] = test system: SNB-75; test: Cytotoxicity against Homo sapiens (human) SNB75 cells after 48 hr by SRB assay; settings: SNB-75, 48 h
[12] = test system: MCF7; test: Cytotoxicity against Homo sapiens (human) MCF7 cells after 48 hr by SRB assay; settings: MCF7, 48 h
[13] = test system: SW-620; test: Cytotoxicity against Homo sapiens (human) SW620 cells after 48 hr by SRB assay; settings: SW-620, 48 h
[14] = test system: UO-31; test: Cytotoxicity against Homo sapiens (human) UO31 cells after 48 hr by SRB assay; settings: UO-31, 48 h
[15] = test system: NCI-H522; test: Cytotoxicity against Homo sapiens (human) NCI-H522 cells after 48 hr by SRB assay; settings: NCI-H522, 48 h
[16] = test system: SK-MEL-2; test: Cytotoxicity against Homo sapiens (human) SK-MEL-2 cells after 48 hr by SRB assay; settings: SK-MEL-2, 48 h
[17] = test system: SK-OV-3; test: Cytotoxicity against Homo sapiens (human) SKOV3 cells after 48 hr by SRB assay; settings: SK-OV-3, 48 h
[18] = test system: U-251; test: Cytotoxicity against Homo sapiens (human) U251 cells after 48 hr by SRB assay; settings: U-251, 48 h
[19] = test system: TK-10; test: Cytotoxicity against Homo sapiens (human) TK10 cells after 48 hr by SRB assay; settings: TK-10, 48 h
[20] = test system: CAKI-1; test: Cytotoxicity against Homo sapiens (human) Caki1 cells after 48 hr by SRB assay; settings: CAKI-1, 48 h
[21] = test system: T47D; test: Cytotoxicity against Homo sapiens (human) T47D cells after 48 hr by SRB assay
[22] = test system: RPMI-8226; test: Cytotoxicity against Homo sapiens (human) RPMI8226 cells after 48 hr by SRB assay; settings: RPMI-8226, 48 h
[23] = test system: HCT-15; test: Cytotoxicity against Homo sapiens (human) HCT15 cells after 48 hr by SRB assay; settings: HCT-15, 48 h
[24] = test system: OVCAR-8; test: Cytotoxicity against Homo sapiens (human) OVCAR8 cells after 48 hr by SRB assay; settings: OVCAR-8, 48 h
[25] = test system: NCI-H460; test: Cytotoxicity against Homo sapiens (human) NCI-H460 cells after 48 hr by SRB assay; settings: NCI-H460, 48 h
[26] = test system: CCRF-CEM; test: Cytotoxicity against Homo sapiens (human) CCRF-CEM cells after 48 hr by SRB assay
[27] = test system: SF-268; test: Cytotoxicity against Homo sapiens (human) SF268 cells after 48 hr by SRB assay; settings: SF-268, 48 h
[28] = test system: Hs-578T; test: Cytotoxicity against Homo sapiens (human) Hs 578T cells after 48 hr by SRB assay
[29] = test system: SK-MEL-28; test: Cytotoxicity against Homo sapiens (human) SK-MEL-28 cells after 48 hr by SRB assay; settings: SK-MEL-28, 48 h
[30] = test system: IGROV-1; test: Cytotoxicity against Homo sapiens (human) IGROV1 cells after 48 hr by SRB assay; settings: IGROV-1, 48 h
[31] = test system: COLO 205; test: Cytotoxicity against Homo sapiens (human) COLO205 cells after 48 hr by SRB assay; settings: COLO 205, 48 h
[32] = test system: HCC 2998; test: Cytotoxicity against Homo sapiens (human) HCC2998 cells after 48 hr by SRB assay; settings: HCC 2998, 48 h
[33] = test system: OVCAR-3; test: Cytotoxicity against Homo sapiens (human) OVCAR3 cells after 48 hr by SRB assay; settings: OVCAR-3, 48 h
[34] = test system: SNB-19; test: Cytotoxicity against Homo sapiens (human) SNB19 cells after 48 hr by SRB assay; settings: SNB-19, 48 h
[35] = read-out: LC50 (the source's name)

Structure (SMILES): Nc1cc(-c2ccc(Cl)cc2)nn1-c1nc(=O)c(/C=C/c2ccco2)n[nH]1
- TGI [1]: > 100 µM
- GI50 ([1]; read-out: GI50): 18.7 µM
- CC50 [1, 35]: > 100 µM
- GI50 ([1]; read-out: pGI50 (converted)): 18.6 µM
- TGI [2]: 31.1 µM
- GI50 ([2]; read-out: GI50): 3.57 µM
- CC50 [2, 35]: > 100 µM
- GI50 ([2]; read-out: pGI50 (converted)): 3.55 µM
- LC50 (lethal concentration, 50% cell kill) [3]: > 100 µM
- TGI [3]: 75.6 µM
- GI50 ([3]; read-out: GI50): 12.2 µM
- GI50 ([3]; read-out: pGI50 (converted)): 12.3 µM
- TGI [4]: 24.3 µM
- GI50 ([4]; read-out: GI50): 1.58 µM
- CC50 [4, 35]: > 100 µM
- GI50 ([4]; read-out: pGI50 (converted)): 1.58 µM
- TGI [5]: 53.9 µM
- GI50 ([5]; read-out: GI50): 5.13 µM
- CC50 [5, 35]: > 100 µM
- GI50 ([5]; read-out: pGI50 (converted)): 5.13 µM
- LC50 [6]: > 100 µM
- TGI [6]: 21.2 µM
- GI50 ([6]; read-out: GI50): 3.98 µM
- GI50 ([6]; read-out: pGI50 (converted)): 3.98 µM
- LC50 [7]: > 100 µM
- TGI [7]: 23 µM
- GI50 ([7]; read-out: GI50): 2.79 µM
- GI50 ([7]; read-out: pGI50 (converted)): 2.75 µM
- LC50 [8]: > 100 µM
- TGI [8]: 34.2 µM
- GI50 ([8]; read-out: GI50): 3.48 µM
- GI50 ([8]; read-out: pGI50 (converted)): 3.47 µM
- LC50 [9]: > 100 µM
- TGI [9]: 71.8 µM
- GI50 ([9]; read-out: GI50): 6.59 µM
- GI50 ([9]; read-out: pGI50 (converted)): 6.61 µM
- LC50 (50% lethal concentration) [10]: > 100 µM
- TGI [10]: 56.2 µM
- GI50 ([10]; read-out: GI50): 5.6 µM
- GI50 ([10]; read-out: pGI50 (converted)): 5.62 µM
- TGI [11]: 37.2 µM
- GI50 ([11]; read-out: GI50): 10.6 µM
- CC50 [11, 35]: > 100 µM
- GI50 ([11]; read-out: pGI50 (converted)): 10.7 µM
- LC50 (concentration killing 50% of cells) [12]: > 100 µM
- TGI [12]: 50.4 µM
- GI50 ([12]; read-out: GI50): 4.05 µM
- GI50 ([12]; read-out: pGI50 (converted)): 4.07 µM
- TGI [13]: > 100 µM
- GI50 ([13]; read-out: GI50): 5.02 µM
- CC50 [13, 35]: > 100 µM
- GI50 ([13]; read-out: pGI50 (converted)): 5.01 µM
- TGI [14]: 13.7 µM
- GI50 ([14]; read-out: GI50): 1.63 µM
- CC50 [14, 35]: > 100 µM
- GI50 ([14]; read-out: pGI50 (converted)): 1.62 µM
- TGI [15]: 36.8 µM
- GI50 ([15]; read-out: GI50): 5.12 µM
- CC50 [15, 35]: > 100 µM
- GI50 ([15]; read-out: pGI50 (converted)): 5.13 µM
- TGI [16]: 77.9 µM
- GI50 ([16]; read-out: GI50): 15.6 µM
- CC50 [16, 35]: > 100 µM
- GI50 ([16]; read-out: pGI50 (converted)): 15.5 µM
- LC50 [17]: > 100 µM
- TGI [17]: 7.43 µM
- GI50 ([17]; read-out: GI50): 5.58 µM
- GI50 ([17]; read-out: pGI50 (converted)): 5.62 µM
- TGI [18]: 84.8 µM
- GI50 ([18]; read-out: GI50): 4.47 µM
- CC50 [18, 35]: > 100 µM
- GI50 ([18]; read-out: pGI50 (converted)): 4.47 µM
- LC50 [19]: > 100 µM
- TGI [19]: 23.1 µM
- GI50 ([19]; read-out: GI50): 3.64 µM
- GI50 ([19]; read-out: pGI50 (converted)): 3.63 µM
- LC50 [20]: > 100 µM
- TGI [20]: 4.6 µM
- GI50 ([20]; read-out: GI50): 0.37 µM
- GI50 ([20]; read-out: pGI50 (converted)): 0.372 µM
- LC50 [21]: > 100 µM
- TGI [21]: 44.2 µM
- GI50 ([21]; read-out: GI50): 4.37 µM
- GI50 ([21]; read-out: pGI50 (converted)): 4.37 µM
- LC50 [22]: > 100 µM
- TGI [22]: 23.2 µM
- GI50 ([22]; read-out: GI50): 3.03 µM
- GI50 ([22]; read-out: pGI50 (converted)): 3.02 µM
- TGI [23]: > 100 µM
- GI50 ([23]; read-out: GI50): 1.89 µM
- CC50 [23, 35]: > 100 µM
- GI50 ([23]; read-out: pGI50 (converted)): 1.91 µM
- TGI [24]: 65.8 µM
- GI50 ([24]; read-out: GI50): 4.47 µM
- CC50 [24, 35]: > 100 µM
- GI50 ([24]; read-out: pGI50 (converted)): 4.47 µM
- TGI [25]: 13.9 µM
- GI50 ([25]; read-out: GI50): 1.88 µM
- CC50 [25, 35]: > 100 µM
- GI50 ([25]; read-out: pGI50 (converted)): 1.86 µM
- LC50 [26]: > 100 µM
- TGI [26]: 16.8 µM
- GI50 ([26]; read-out: GI50): 2.88 µM
- GI50 ([26]; read-out: pGI50 (converted)): 2.88 µM
- TGI [27]: 25.1 µM
- GI50 ([27]; read-out: GI50): 1.99 µM
- CC50 [27, 35]: > 100 µM
- GI50 ([27]; read-out: pGI50 (converted)): 2 µM
- GI50 [28]: 8.51 µM
- LC50 [29]: > 100 µM
- TGI [29]: 82.3 µM
- GI50 ([29]; read-out: GI50): 4.06 µM
- GI50 ([29]; read-out: pGI50 (converted)): 4.07 µM
- LC50 (concentration killing 50% of cells) [30]: > 100 µM
- TGI [30]: 37.8 µM
- GI50 ([30]; read-out: GI50): 4.89 µM
- GI50 ([30]; read-out: pGI50 (converted)): 4.9 µM
- TGI [31]: 18.4 µM
- GI50 ([31]; read-out: GI50): 3.44 µM
- CC50 [31, 35]: > 100 µM
- GI50 ([31]; read-out: pGI50 (converted)): 3.47 µM
- TGI [32]: > 100 µM
- GI50 ([32]; read-out: GI50): 5.59 µM
- CC50 [32, 35]: > 100 µM
- GI50 ([32]; read-out: pGI50 (converted)): 5.62 µM
- LC50 (50% lethal concentration) [33]: 31.8 µM
- TGI [33]: 5.2 µM
- GI50 ([33]; read-out: GI50): 1.48 µM
- GI50 ([33]; read-out: pGI50 (converted)): 1.48 µM
- TGI [34]: 69.4 µM
- GI50 ([34]; read-out: GI50): 5.81 µM
- CC50 [34, 35]: > 100 µM
- GI50 ([34]; read-out: pGI50 (converted)): 5.75 µM
